Test results published in patent publication US5696093A (CRC for Biopharmaceutical Research Pty Limited, priority 1994, dated 1997).
“Also recorded” adds a separate entry of the source. Read-outs that look alike come from different tables or passages of the source. Values belong to the compound of their own block, whether it stands above or below them. Where no end group is shown, it is not given here.

Tests used:
[1] = system: internal maxillary artery; experiment: Local intra arterial injection, vascular resistance in the internal maxillary artery (Rma); type: in vivo; details: dog; for effect on Rma, in words / rank order potency on a molar basis (reduction of Rma): local intra arterial injection; for vascular effect after pretreatment with adrenoceptor blockers and atropine: phentolamine, propranolol and atropine pretreatment
Experimental: Experiments were performed on twelve adult mixed breed dogs of both sexes weighing between 4 and 9 kg. These experiments were approved by the institutional animal care and ethics committee. The dogs were anaesthetised with pentobarbitone sodium (35 mg kg^-1 i.v.). The trachea was cannulated low in the neck and the animals were artifically ventilated. A catheter connected to a […] blood pressure transducer was placed in a femoral artery for systemic blood pressure monitoring. Another catheter was inserted in a femoral vein for administration of compounds and further doses of anaesthetic as required (0.5-1 ml of a 1-in-5 dilution of pentobarbitone). The left cervical vagus nerve was dissected high in the neck, the vagal sheath was removed and then the sympathetic nerve was separated from the vagal trunk. […] The left zygomatic arch was removed and the […] the sphenopalatine ganglion were exposed by a procedure similar to the one described by […] & Wilson (1973). Bipolar platinum electrodes connected to a Grass S 88 stimulator (Grass Instruments, Quincy, USA) were used for stimulation of the proximal portion of the cervical sympathetic nerve and the cut peripheral end of the parasympathetic nerve. The identification of cervical sympathetic nerve was confirmed by observing dilation of the pupil with its electrical stimulation. The left external carotid artery was […] up to the internal maxillary artery. The main arterial branches located beyond to the superficial temporal artery were ligated as described previously by Lacroix et al. (1988), a procedure which leaves the internal maxillary artery flow supplying only the nasal mucosa. The superficial temporal artery was cannulated for selective injection of agents into the main nasal arterial blood supply. The nasal arterial blood flow was recorded with a transonic flow probe (3SB454) placed around the internal maxillary artery and connected to a T206 ultrasonic blood flowmeter (Transonic System Inc., N.Y., U.S.A.). All parameters were continuously recorded on a Grass polygraph model 7C in all experiments. The animals were allowed a one hour intervention-free period following completion of surgery. Group 1 (n+8): […] The administration of saline alone had no measurable effect. An interval of 5 min was allowed between successive injections. Fifteen minutes after the completion of the ACh, VIP, PH1 and NA injections, parasympathetic nerve stimulations (5 V, 5 ms) were performed at continuous frequencies of 10, 20 and 30 Hz, each for 10 sec. Each stimulation was performed 3 min after the blood flow in the internal maxillary artery returned to base line from the preceding stimulation. Sympathetic nerve stimulation (15 V, 5 ms) was then performed continuously at 10 Hz for 3 min. Parasympathetic nerve stimulations were repeated five minutes, thirty minutes and then one hour after sympathetic nerve stimulation. This entire protocol was repeated after pretreatment with the α-adrenoceptor antagonist phentolamine (0.5 mg kg^-1 h^-1), the β-adrenoceptor antagonist propranolol (1 mg kg^-1) and the parasympathetic muscarinic receptor blocker atropine (0.5 mg kg^-1), all delivered by local intra arterial (i.a.) injection. […] Analysis of results: changes of the nasal arterial blood flow were expressed in terms of vascular resistance in the maxillary artery (Rma), obtained by dividing the driving mean arterial blood pressure in the femoral artery by the peak value of the blood flow volume rate in the maxillary artery. Before each experiment a zero flow in the maxillary artery was obtained by clamping the artery upstream to the transonic probe for 30 sec. The duration of the responses were given in second sand calculated from the end of the electrical stimulation until return to former basal values. All data are presented as mean ± standard error of the […]. Statistical differences were evaluated using one way ANOVA test.

[2] = system: dog nasal mucosa; experiment: Parasympathetic nerve-evoked nasal vasodilatation in anaesthetised dogs; type: in vivo; details: for parasympathetic vasodilatation after administration, in words: i.v.
[3] = molecular target: T1, prejunctional (neuropeptide Y Y2) receptor (Rattus norvegicus, UniProt Q9ERC0); details: Potter et al., 1989; cited from earlier work
T1 construct: from tissue; host or cells: whole anaesthetised Wistar rat (cardiac vagal nerve endings)
T1 sequence (Q9ERC0 1-381): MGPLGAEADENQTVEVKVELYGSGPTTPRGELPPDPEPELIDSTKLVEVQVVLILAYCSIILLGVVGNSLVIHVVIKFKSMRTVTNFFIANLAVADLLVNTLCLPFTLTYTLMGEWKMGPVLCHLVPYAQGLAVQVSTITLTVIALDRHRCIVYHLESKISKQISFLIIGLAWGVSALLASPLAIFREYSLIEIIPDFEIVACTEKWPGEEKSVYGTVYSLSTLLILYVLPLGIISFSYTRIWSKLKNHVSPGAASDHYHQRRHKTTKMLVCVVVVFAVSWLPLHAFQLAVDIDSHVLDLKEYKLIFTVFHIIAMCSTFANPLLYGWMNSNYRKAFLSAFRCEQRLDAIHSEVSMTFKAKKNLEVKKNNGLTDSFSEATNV

[4] = system: internal maxillary artery; experiment: Arterial blood pressure and nasal arterial blood flow in anaesthetised dogs after i.v. peptide; type: in vivo; details: dog, 8 nmol kg^-1 i.v.
Experimental: Experiments were performed on twelve adult mixed breed dogs of both sexes weighing between 4 and 9 kg. These experiments were approved by the institutional animal care and ethics committee. The dogs were anaesthetised with pentobarbitone sodium (35 mg kg^-1 i.v.). The trachea was cannulated low in the neck and the animals were artifically ventilated. A catheter connected to a Statham P23AC blood pressure transducer was placed in a femoral artery for systemic blood pressure monitoring. Another catheter was inserted in a femoral vein for administration of compounds and further doses of anaesthetic as required (0.5-1 ml of a 1-in-5 dilution of pentobarbitone). The left cervical vagus nerve was dissected high in the neck, the vagal sheath was removed and then the sympathetic nerve was separated from the vagal trunk. […] Bipolar platinum electrodes connected to a Grass S 88 stimulator (Grass Instruments, Quincy, USA) were used for stimulation of the proximal portion of the cervical sympathetic nerve and the cut peripheral end of the parasympathetic nerve. The identification of cervical sympathetic nerve was confirmed by observing dilation of the pupil with its electrical stimulation. The left external carotid artery was disserted up to the internal maxillary artery. […] The superficial temporal artery was cannulated for selective injection of agents into the main nasal arterial blood supply. The nasal arterial blood flow was recorded with a transonic flow probe (3SB454) placed around the internal maxillary artery and connected to a T206 ultrasonic blood flowmeter (Transonic System Inc., N.Y., U.S.A.). All parameters were continuously recorded on a Grass polygraph model 7C in all experiments. The animals were allowed a one hour intervention-free period following completion of surgery.
Group 1 (n+8): Solutions of ACh (5.5×10^-11 to 5.5×10^-8 mol). VIP (3×10^-11 to 3×10^-9 mol), PH1 (3.3×10^-11 to 1.6×10^-8 mol) and NA (6×10^-11 mol to 6×10^-8 mol) in 1 ml of saline, were infused into the superficial temporal artery over a period of 15 sec. […]

[5] = molecular target: T2, neuropeptide Y Y1 receptor (Homo sapiens, UniProt P25929); experiment: Competition with radiolabelled peptide YY for binding to SK-N-MC cells
T2 construct: host or cells: SK-N-MC human neuroblastoma cells (whole cells)
T2 sequence (P25929 1-384): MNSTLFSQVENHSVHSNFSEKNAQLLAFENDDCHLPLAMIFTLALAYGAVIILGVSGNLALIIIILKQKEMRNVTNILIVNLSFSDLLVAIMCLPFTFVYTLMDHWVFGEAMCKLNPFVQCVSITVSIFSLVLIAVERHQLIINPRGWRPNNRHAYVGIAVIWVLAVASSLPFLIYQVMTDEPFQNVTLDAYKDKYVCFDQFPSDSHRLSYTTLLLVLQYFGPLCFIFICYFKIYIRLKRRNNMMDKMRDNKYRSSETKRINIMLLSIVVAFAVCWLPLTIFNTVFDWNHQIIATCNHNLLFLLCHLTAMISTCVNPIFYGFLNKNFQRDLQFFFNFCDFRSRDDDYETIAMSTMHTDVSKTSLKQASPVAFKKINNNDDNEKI
Text: (§1) All media and materials for tissue culture were obtained from Cytosystems (Castle Hill, NSW, Australia). Cells were harvested by treatment with 0.2% EDTA in phosphate buffered saline and immediately used in the binding assay described.

[6] = molecular target: T3, neuropeptide Y Y2 receptor (Homo sapiens, UniProt P49146); experiment: Competition with radiolabelled peptide YY for binding to SMS-KAN cells
T3 construct: endogenous in cells; host or cells: SMS-KAN human neuroblastoma cells (whole cells; gift of Dr Thue Schwartz)
T3 sequence (P49146 1-381): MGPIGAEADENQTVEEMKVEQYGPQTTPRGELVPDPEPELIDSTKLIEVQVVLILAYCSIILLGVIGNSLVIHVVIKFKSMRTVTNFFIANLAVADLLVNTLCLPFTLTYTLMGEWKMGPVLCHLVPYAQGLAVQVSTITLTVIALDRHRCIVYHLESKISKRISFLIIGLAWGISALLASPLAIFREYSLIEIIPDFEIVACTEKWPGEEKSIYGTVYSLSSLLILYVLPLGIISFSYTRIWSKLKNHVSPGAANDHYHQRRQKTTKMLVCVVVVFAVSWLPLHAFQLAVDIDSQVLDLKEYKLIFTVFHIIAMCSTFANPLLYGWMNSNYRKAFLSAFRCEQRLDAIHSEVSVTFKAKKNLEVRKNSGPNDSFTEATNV
Text: as §1

[7] = molecular target: T4, postjunctional (neuropeptide Y Y1) receptor (Rattus norvegicus, UniProt P21555); experiment: Pressor action (arterial blood pressure) in anaesthetised rats (postjunctional activity); type: in vivo; details: i.v.
T4 construct: from tissue; host or cells: whole anaesthetised Wistar rat (vasculature)
T4 sequence (P21555 1-382): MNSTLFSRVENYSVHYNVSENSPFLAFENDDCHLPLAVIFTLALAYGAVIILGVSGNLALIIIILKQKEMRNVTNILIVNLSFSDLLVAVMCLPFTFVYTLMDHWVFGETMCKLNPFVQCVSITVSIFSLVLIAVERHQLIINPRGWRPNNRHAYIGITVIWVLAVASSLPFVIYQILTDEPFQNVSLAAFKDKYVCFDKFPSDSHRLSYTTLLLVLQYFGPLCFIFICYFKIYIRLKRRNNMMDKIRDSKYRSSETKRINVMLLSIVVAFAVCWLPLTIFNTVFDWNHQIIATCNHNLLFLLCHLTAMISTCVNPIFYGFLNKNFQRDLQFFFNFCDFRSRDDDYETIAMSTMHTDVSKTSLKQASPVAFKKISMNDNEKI
Experimental: Experiments were carried out on adult rats (Wistar) of both sexes (250-350 g), anaesthetised with sodium pentobarbitone (Nembutal, Boehringer-Ingleheim; 60 mg/kg, i.p.). The trachea was cannulated and the animal artifically ventilated. The femoral vein was cannulated for administration of peptides and further doses of anaesthetic. The left femoral artery was cannulated to record arterial pressure. Both vagus nerves were cut. […] The frequency was chosen to increase pulse interval by approximately 100 ms, a submaximal effect on this variable. The electrocardiogram was measured using needle electrodes and monitored on one channel of an osciloscope. Pulse interval (the period between successive beats of the heart) was recorded beat-by-beat by triggering from ECG. Pulse interval and arterial pressure were recorded on the pen recorder. […]
As an indication of prejunctional activity two parameters were measured; the maximum percent inhibition of the increase in pulse interval evoked by stimulation of the vagus nerve following injection of peptide (Δ pulse interval, % inhibition) and the time to half recovery of this effect (T50). For pressor action, an indicator of postjunctional activity, two parameters were also measured; the peak pressor response following injection of peptide (Δ blood pressure) and the duration of the increase in blood pressure (Duration). […]

[8] = molecular target: T1, prejunctional (neuropeptide Y Y2) receptor; experiment: Inhibition of cardiac vagal action in anaesthetised rats (prejunctional activity); type: in vivo; details: for inhibition of cardiac vagal action (prejunctional effect), in words / EC50: anaesthetised rats, i.v.; for EC50: log of the dose which evokes 50% of the maximum response, mean ± SEM, five rats
Experimental: Experiments were carried out on adult rats (Wistar) of both sexes (250-350 g), anaesthetised with sodium pentobarbitone (Nembutal, Boehringer-Ingleheim; 60 mg/kg, i.p.). […] The femoral vein was cannulated for administration of peptides and further doses of anaesthetic. The left femoral artery was cannulated to record arterial pressure. Both vagus nerves were cut. […] The electrocardiogram was measured using needle electrodes and monitored on one channel of an osciloscope. Pulse interval (the period between successive beats of the heart) was recorded beat-by-beat by triggering from ECG. Pulse interval and arterial pressure were recorded on the pen recorder.
Dose-response curves were constructed from group data for all rats. Because of the long time-course of action of the peptides tested, not all peptides were given to each rat.

[9] = system: endogenous ATP receptor; experiment: Calcium response to ATP in Y1 receptor-transfected CHO cells; type: cell-based, Chinese Hamster; details: 1 μM ATP
Experimental: Cells were suspended in loading media (Modified RPMI, 10 mM Hepes, 1% newborn fetal calf serum) and incubated in a spinner flask at 37° C., for 2.5 hours at 1×10^6 cells/ml. Cells were then treated with […] Fura-2 AM for 30 minutes at 37° C., washed twice with loading media and resuspended at 5×10^6 cells/ml. Immediately before use in fluorescence spectroscopy, cells were recovered by centrifugation at 1000 rpm and resuspended at 1×10^6 cells/ml in a modified Krebs buffer (135 mM NaCl, 4.7 mM KCl; 1.2 /nM MgSO4, 1.2 mM KH2 PO4, 5 mM NaHCO3, 1 mM CaCl2, 2.8 mM glucose, and 10 mM Hepes, pH 7.4) containing 1 mM sulphinpyrazone. Fluorescence recordings were made on an Hitachi fluorescence spectrometer (F4010) at 340 nm (excitation) and 505 nm (emission) over 10 minutes with slit widths of 5 nm and a response time of 2 seconds. Intracellular calcium levels were quantitated using equations described (Grynkiewicz et al., 1985).

Compound: peptide histidine isoleucine [PHI]
effect on Rma, in words [1]: dose-dependant reductions of the Rma
rank order potency on a molar basis (reduction of Rma) [1]: ACh>VIP>PHI
vascular effect after pretreatment with adrenoceptor blockers and atropine [1]: remained intact

Compound: C[N+](C)(C)CC[N+]1(C)Cc2c(Cl)c(Cl)c(Cl)c(Cl)c2C1 [chlorisondamine]
vasodilatation evoked by vidian nerve stimulation after ganglion blocker ([2]; 2 mg kg^-1, i.v.): inhibition of vasodilatation

Compound: neuropeptide Y-(13-32)
prejunctional activity in vivo, earlier study [3]: inactive in vivo

Compound: [Leu^31, Pro^34 ] neuropeptide Y [[Leu^31, Pro^34] NPY]
duration of the blood pressure increase [4]: more than 7 min
reduction of blood flow in the internal maxillary artery (nasal mucosa blood flow) [4]: ~20%
increase in arterial blood pressure ([4]; after phentolamine, propranolol and atropine): 23±2.8 mmHg
parasympathetic vasodilatation after administration, in words ([2]; Y1 agonist 8 nmol kg^-1, Y2 agonist 20 nmol kg^-1): no influence on the parasympathetic nerve-evoked vasodilatation; also recorded: no influence on the subsequent parasympathetic vasodilatation
parasympathetic vasodilatation after administration, in words ([2]; Y1 agonist 8 nmol kg^-1, Y2 agonist 20 nmol kg^-1, Pro^31 ] NPY): not modified

Compound: NC[C@H](O)c1ccc(O)c(O)c1 [NA]
effect on Rma, in words [1]: dose-dependant increases in Rma
vascular effect after pretreatment with adrenoceptor blockers and atropine [1]: virtually abolished

Compound: vasoactive intestinal polypeptide [VIP]
effect on Rma, in words [1]: dose-dependant reductions of the Rma
rank order potency on a molar basis (reduction of Rma) [1]: ACh>VIP>PHI
vascular effect after pretreatment with adrenoceptor blockers and atropine [1]: remained intact

IC50 [6]: 12.7 ± 1.2 nM
duration of transient response (T50) ([8]; Table 1 footnote, no EC50 calculated): < 2 min
Compound: LRHYLNLLTRQRY-NH2 [[Leu^28, Leu^31] neuropeptide Y-(24-36)]
binding to Y1 receptor on SK-N-MC cells, in words [5]: neither N-acetyl [Leu^28, Leu^31 ] neuropeptide Y-(24-36) or [Leu^28, Leu^31 ] neuropeptide Y-(24-36) shoed significant binding
pressor effect (Δ blood pressure), in words [7]: did not significantly increase blood pressure at any dose tested
inhibition of cardiac vagal action (prejunctional effect), in words [8]: significant inhibitory or prejunctional actions but these effects are transient
inhibition of cardiac vagal action (prejunctional effect), in words ([8]; listed as [Leu^27, Leu^31 ] neuropeptide Y-(24-36)): significant inhibitory effects on cardiac vagal action

Compound: Nc1ncnc2c1ncn2[C@@H]1O[C@H](COP(=O)(O)OP(=O)(O)OP(=O)(O)O)[C@@H](O)[C@H]1O [ATP]
calcium response to ATP after addition of N-acetyl [Leu28, Leu31] neuropeptide Y-(24-36) [9]: 33.8 nM
calcium response to ATP before addition of N-acetyl [Leu28, Leu31] neuropeptide Y-(24-36) [9]: 46.3 nM

IC50 [6]: 3.9 ± 0.4 nM
EC50 ([8]; read-out: EC50 for T50 (time to half recovery of vagal inhibition) (converted)): 2.51 nM
EC50 ([8]; read-out: EC50 for Δ pulse interval (converted)): 3.16 nM
Compound: Ac-LRHYLNLLTRQRY-NH2 [N-acetyl [Leu^28, Leu^31] neuropeptide Y-(24-36)]

Compound: CC(=O)OCC[N+](C)(C)C.[Cl-] [ACh, acetylcholine chloride]
effect on Rma, in words [1]: dose-dependant reductions of the Rma
rank order potency on a molar basis (reduction of Rma) [1]: ACh>VIP>PHI
vascular effect after pretreatment with adrenoceptor blockers and atropine [1]: virtually abolished
